Source: US8557840B2, “Herbicidal compounds” (Syngenta Limited, priority 2008, dated 2013)

Legend:
Type in all cases: in vivo
Solanum nigrum = assay: Herbicidal action, post-emergence, seed trays in climatic chamber (Example B1); details: 1000 g/ha, evaluated after 9 days, 10=total damage to plant, 0=no damage to plant
Method: (§1) Seeds of a variety of test species were sown in sterilised standard soil in seed trays each having 96 cells. […] The plants were grown in the climatic chamber after application at (24/19° C., day/night; 13 hours light; 50-60% humidity) and watered twice daily. After 9 days until the test was evaluated (10=total damage to plant, 0=no damage to plant)

Amaranthus retroflexus = assay: as above; details: 1000 g/ha, evaluated after 9 days, 10=total damage to plant, 0=no damage to plant
Method: as §1

Stellaria media = assay: as above; details: 1000 g/ha, evaluated after 9 days, 10=total damage to plant, 0=no damage to plant
Method: as §1

Nasturtium officinale = assay: as above; details: 1000 g/ha, evaluated after 9 days, 10=total damage to plant, 0=no damage to plant
Method: as §1

test plants [1] = assay: Herbicidal action, post-emergence (Example B2), all test plants, result in words; details: same protocol as Example B2, post-emergence
Method: Seeds of a variety of test species were sown in standard soil in pots. After 8 days cultivation (post-emergence) under controlled conditions in a glasshouse (at 24/16° C., day/night; 14 hours light; 65% humidity), the plants were sprayed with an aqueous spray solution derived from the formulation of the technical active ingredient in acetone/water (50:50) solution containing 0.5% Tween 20 (polyoxyethelyene sorbitan monolaurate, CAS RN 9005-64-5). The test plants were then grown in a glasshouse under controlled conditions in a glasshouse (at 24/16° C., day/night; 14 hours light; 65% humidity) and watered twice daily. After 13 days, the test was evaluated (10=total damage to plant; 0=no damage to plant).

test plants [2] = assay: Herbicidal action, post-emergence (Example B1), all test plants, result in words; details: same protocol as Example B1, post-emergence
Method: as §1

Row | Structure (SMILES) | SOLNI damage to plant (Solanum nigrum) | AMARE damage to plant (Amaranthus retroflexus) | STEME damage to plant (Stellaria media) | NAAOF damage to plant (Nasturtium officinale) | damage to the test plants (test plants [1]) | damage to the test plants (test plants [2])
1 | CCc1cc(C)cc(CC)c1-c1c(O)c2cccnc2n(C)c1=O [D20, 3-(2,6-diethyl-4-methyl-phenyl)-4-hydroxy-1-methyl-1H-[1,8]naphthyridin-2-one] | 0 | 0 | 5 | 5 |  | 
2 | O=c1[nH]c2cccnc2c(O)c1-c1ccc(Cl)cc1Cl [A1] | 0 | 0 | 0 | 2 |  | 
3 | Cc1cc(Cl)c2c(OC(=O)C(C)(C)C)c(-c3c(F)ccc(F)c3Cl)c(=O)n(C)c2n1 [D19] |  |  |  |  | little or no damage | 
4 | Cn1c(=O)c(-c2c(F)ccc(F)c2Cl)c(O)c2ncccc21 [A3] | 3 | 6 | 3 | 4 |  | 
5 | Cn1c(=O)c(-c2c(F)ccc(F)c2Cl)c(OC(=O)C(C)(C)C)c2cc(Br)cnc21 [D13, 2,2-dimethyl-propionic acid 6-bromo-3-(2-chloro-3,6-difluoro-phenyl)-1-methyl-2-oxo-1,2-dihydro-[1,8]naphthyridin-4-yl ester] |  |  |  |  | little or no damage | 
6 | CCc1cc(C)cc(CC)c1-c1c(OC(=O)C(C)C)c2ncccc2n(C)c1=O [A6] | 6 | 3 | 8 | 6 |  | 
7 | O=c1[nH]c2cccnc2c(O)c1-c1cccnc1 [A7] | 0 | 0 | 6 | 2 |  | 
8 | CC(C)C(=O)Oc1c(-c2c(F)ccc(F)c2Cl)c(=O)n(C)c2cccnc12 [A4] | 4 | 5 | 4 | 6 |  | 
9 | Cn1c(=O)c(-c2c(F)ccc(F)c2Cl)c(OC(=O)C(C)(C)C)c2ncccc21 [A5] | 7 | 0 | 0 | 3 |  | 
10 | CC(C)C(=O)Oc1c(-c2c(F)ccc(F)c2Cl)c(=O)n(C)c2ncccc12 [D7] | 0 | 6 | 3 | 0 |  | 
11 | Cn1c(=O)c(-c2c(F)ccc(F)c2Cl)c(OC(=O)C(C)(C)C)c2cccnc21 [D9] | 0 | 3 | 2 | 2 |  | 
12 | O=c1[nH]c2nncnc2c(O)c1-c1c(F)ccc(F)c1Cl [E4] | 4 | 2 | 0 | 0 |  | 
13 | CC(C)(C)C(=O)Oc1c(-c2c(F)ccc(F)c2Cl)c(=O)[nH]c2ncncc12 [E1] |  |  |  |  | little or no damage | 
14 | CCc1cc(C)cc(CC)c1-c1c(OC(=O)C(C)(C)C)c2cccnc2n(C)c1=O [D8] | 0 | 0 | 2 | 3 |  | 
15 | O=c1[nH]c2cccnc2c(O)c1-c1ccccc1OC(F)(F)F [A2] | 0 | 0 | 3 | 0 |  | 
16 | CC(C)(C)C(=O)Oc1c(-c2c(F)ccc(F)c2Cl)c(=O)[nH]c2ccncc12 [B3] |  |  |  |  |  | little or no damage
17 | O=c1[nH]c2cnccc2c(O)c1-c1c(F)cc(F)cc1F [C3] |  |  |  |  |  | little or no damage
18 | CCn1c(=O)c(-c2c(F)ccc(F)c2Cl)c(OC(=O)C(C)(C)C)c2cnccc21 [B1, 2,2-dimethyl-propionic acid 3-(2-chloro-3,6-difluoro-phenyl)-1-ethyl-2-oxo-1,2-dihydro-[1,6]naphthyridin-4-yl ester] |  |  |  |  | little or no damage | 
19 | Cn1c(=O)c(-c2c(F)ccc(F)c2Cl)c(O)c2cccnc21 [D5] | 0 | 7 | 7 | 6 |  | 
20 | O=c1[nH]c2ncccc2c(O)c1-c1cccnc1 [D11, 4-Hydroxy-3-pyridin-3-yl-1H-[1,8]naphthyridin-2-one] |  |  |  |  |  | little or no damage
21 | CCc1cc(C)cc(CC)c1-c1c(OC(=O)C(C)C)c2cccnc2n(C)c1=O [D6, isobutyric acid 3-(2,6-diethyl-4-methyl-phenyl)-1-methyl-2-oxo-1,2-dihydro-[1,8]naphthyridin-4-yl ester] | 0 | 0 | 2 | 0 |  | 
22 | O=c1[nH]c2cnncc2c(O)c1-c1c(F)cc(F)cc1F [E13] |  |  |  |  |  | little or no damage
23 | O=c1[nH]c2ncccc2c(O)c1-c1c(F)ccc(F)c1Cl [D4] |  |  |  |  |  | little or no damage
24 | O=c1[nH]c2cccnc2c(O)c1-c1c(F)cc(F)cc1F [A9] |  |  |  |  |  | little or no damage
25 | CC(C)(C)C(=O)Oc1c(-c2c(F)ccc(F)c2Cl)c(=O)[nH]c2nc(Cl)ccc12 [D15] |  |  |  |  |  | little or no damage
26 | Cc1cc2c(c(Cl)n1)c(OC(=O)C(C)(C)C)c(-c1c(F)ccc(F)c1Cl)c(=O)n2C [B5] |  |  |  |  | little or no damage | 
